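Method: 48-hour compound exposure of cells in 96-well plates, five concentrations, linear interpolation of endpoints. Abbreviation: GI50, concentration required for 50% inhibition of growth.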 Calls of active or inactive are those of the source. Cut-off read from the data, not from the text of the source: active = GI50 up to about 1.1 µM and inactive = higher.

Test systems include BT-549; CAKI-1; CCRF-CEM; DU-145; MCF7; MDA-N; NCI-H226; NCI/ADR-RES; OVCAR-4; OVCAR-8; PC-3; RXF 393; SF-539; SK-MEL-5; SK-OV-3; SN12C; SNB-19; T47D; TK-10; UACC-62.
What all share (experiment): growth of human tumour cells (NCI), 48 h

Consider `Cc1ccc(C(=O)Nc2ccc(CP(=O)(O)O)cc2CP(=O)(O)O)cc1N`, for which the GI50 in the assay with BT-549, in the assay with CAKI-1, in the assay with CCRF-CEM, in the assay with DU-145, with MCF7 and in the assay on MDA-N was > 100 µM (inactive) each time. The GI50 in the assay with NCI-H226, with NCI/ADR-RES, in the assay on OVCAR-4, with OVCAR-8, in the assay with PC-3 and with RXF 393 was > 100 µM (inactive) in each case. Besides, the GI50 in the assay with SF-539, in the assay on SK-MEL-5, with SK-OV-3, with SN12C, with SNB-19 and with T47D was > 100 µM (inactive) in each case. Moreover, the GI50 in the assay on TK-10 and in the assay on UACC-62 was > 100 µM (inactive) in each case.

As for `COc1ccc(C(C)NNC(=O)c2cc[n+]([BH2-]C#N)cc2)cc1OC` (stereo not given), the GI50 in the assay with BT-549, in the assay with CAKI-1, in the assay with CCRF-CEM, in the assay with DU-145, in the assay on MCF7 and with MDA-N was > 100 µM (inactive) throughout. The GI50 with NCI-H226, with NCI/ADR-RES, in the assay with OVCAR-4, in the assay on OVCAR-8, in the assay with PC-3 and in the assay with RXF 393 was > 100 µM (inactive) each time. The GI50 is > 100 µM (inactive) in the assay on SF-539; > 100 µM (inactive) with SK-MEL-5; 54.3 µM (inactive) in the assay on SK-OV-3; > 100 µM (inactive) with SN12C; > 100 µM (inactive) in the assay on SNB-19; > 100 µM (inactive) in the assay on T47D. In addition, the GI50 in the assay with TK-10 and in the assay with UACC-62 was > 100 µM (inactive) in each case.

On to `CCOC(=O)/C=C(\C(=O)OCC)n1cc(Cl)c(=O)n(CC(=O)OCC)c1=O`, for which the GI50 was 18 µM (inactive) with BT-549; 2.25 µM (inactive) with CAKI-1; 5.09 µM (inactive) with CCRF-CEM; 17 µM (inactive) in the assay on DU-145; 2.62 µM (inactive) in the assay on MCF7; 11.3 µM (inactive) with MDA-N. Also, the GI50 is 16.4 µM (inactive) with NCI-H226; 27.6 µM (inactive) in the assay on NCI/ADR-RES; 15.2 µM (inactive) in the assay on OVCAR-4; 2.19 µM (inactive) in the assay with OVCAR-8; 14.5 µM (inactive) in the assay on PC-3; 1.69 µM (inactive) in the assay on RXF 393. For the same molecule, the GI50 was 14 µM (inactive) with SF-539; 15.7 µM (inactive) with SK-MEL-5; 19.5 µM (inactive) with SK-OV-3; 14.5 µM (inactive) with SN12C; 18.8 µM (inactive) in the assay with SNB-19; 1.66 µM (inactive) in the assay on T47D. Moreover, the GI50 is 1.89 µM (inactive) in the assay on TK-10 and 10.9 µM (inactive) in the assay on UACC-62.

Turning to `Cc1ccc(C)c2c1CC(Cc1ccccc1C(=O)O)C2=O` (stereo not given), the GI50 in the assay on BT-549, in the assay on CAKI-1, with CCRF-CEM, in the assay with DU-145, with MCF7 and with MDA-N was > 100 µM (inactive) throughout. The GI50 in the assay with NCI-H226 is > 100 µM (inactive); in the assay with NCI/ADR-RES it was > 100 µM (inactive); with OVCAR-4, > 100 µM (inactive); in the assay with OVCAR-8, > 100 µM (inactive); in the assay on PC-3 it was > 100 µM (inactive); in the assay on RXF 393, 83.2 µM (inactive). The GI50 in the assay with SF-539, in the assay on SK-MEL-5, with SK-OV-3, in the assay on SN12C, with SNB-19 and with T47D was > 100 µM (inactive) each time. Further, the GI50 in the assay on TK-10 and in the assay with UACC-62 was > 100 µM (inactive) each time.

As to `COC(=O)c1ccccc1C1CN=NC12Cc1cc(C)c(C)cc1C2=O` (stereo not given), the GI50 was 65.9 µM (inactive) in the assay with BT-549; 61.2 µM (inactive) in the assay on CAKI-1; 24.1 µM (inactive) with CCRF-CEM; > 100 µM (inactive) in the assay on DU-145; 24.4 µM (inactive) in the assay on MCF7; 33.7 µM (inactive) in the assay on MDA-N. Also, the GI50 is > 100 µM (inactive) in the assay on NCI-H226; 23.6 µM (inactive) in the assay on NCI/ADR-RES; 29.6 µM (inactive) with OVCAR-4; 54.6 µM (inactive) in the assay on OVCAR-8; 32.1 µM (inactive) in the assay with PC-3; 66.2 µM (inactive) with RXF 393. Besides, the GI50 with SF-539 was 84.3 µM (inactive); with SK-MEL-5, 18.7 µM (inactive); with SK-OV-3, 40.3 µM (inactive); in the assay with SN12C it was 48.9 µM (inactive); with SNB-19, 54.8 µM (inactive); with T47D it was 31.8 µM (inactive). For the same molecule, the GI50 in the assay on TK-10 was 25.8 µM (inactive); in the assay with UACC-62 it was 53 µM (inactive).

Regarding `NC1=NCN(C2OC(CO)C(O)C2O)C(=O)N1` (stereo not given), the GI50 with BT-549 is 9.62 µM (inactive); in the assay with CAKI-1, 69 µM (inactive); in the assay with CCRF-CEM, 7.19 µM (inactive); in the assay with DU-145, 148 µM (inactive); in the assay on MCF7, 9.84 µM (inactive); with MDA-N it was 7.87 µM (inactive). The GI50 in the assay on NCI-H226 is 5.57 µM (inactive); with NCI/ADR-RES, 705 µM (inactive); in the assay on OVCAR-4, 139 µM (inactive); with OVCAR-8, 415 µM (inactive); with PC-3, 342 µM (inactive); with RXF 393, 8.99 µM (inactive). The GI50 was 24.3 µM (inactive) in the assay with SF-539; 42 µM (inactive) with SK-MEL-5; 126 µM (inactive) in the assay on SK-OV-3; 349 µM (inactive) in the assay on SN12C; 159 µM (inactive) in the assay with SNB-19; 15 µM (inactive) with T47D. Besides, the results for the GI50 with TK-10 and in the assay with UACC-62 were 11.4 µM (inactive) and 15.2 µM (inactive), respectively.

As to `COc1cccc([C@H]2C/C(=N\NC(=O)C(=O)N[C@@H](C)c3ccccc3)c3ccccc3N2)c1`, the GI50 in the assay with BT-549 is > 10 µM (inactive); in the assay with CAKI-1, 0.0354 µM (active); in the assay on CCRF-CEM, 0.0188 µM (active); in the assay on DU-145 it was 0.0258 µM (active); in the assay on MCF7, 9.38 µM (inactive); in the assay with MDA-N, < 0.01 µM (active). In addition, the GI50 is 0.0314 µM (active) in the assay on NCI-H226; 7.05 µM (inactive) in the assay with NCI/ADR-RES; 7.48 µM (inactive) with OVCAR-4; 6.41 µM (inactive) in the assay on OVCAR-8; 0.0263 µM (active) with PC-3; 5.5 µM (inactive) in the assay with RXF 393. The GI50 in the assay on SF-539 is 7.82 µM (inactive); in the assay on SK-MEL-5, < 0.01 µM (active); in the assay with SK-OV-3 it was 0.0491 µM (active); in the assay with SN12C, 0.0184 µM (active); in the assay on SNB-19, 6.52 µM (inactive); with T47D, > 10 µM (inactive). The GI50 in the assay with TK-10 was > 10 µM (inactive); with UACC-62 it was < 0.01 µM (active).

(Values after ChEMBL document CHEMBL1201862, “PubChem BioAssay data set” (2004).)
